Data: patent US20060094676A1, “Compositions and methods for treating cancer using compositions comprising an inhibitor of endothelin receptor activity” (priority 2004, published 2006)

What was measured:
[1] = system: Me 190/DA (Cut-met) melanoma cells; experiment: MTS assay of cell viability after BQ788; assay type: cell-based, human; conditions: incubation with BQ788 for seven days
Method: (§1) Cells were cultured on a matrigel matrix that was histologically examined after two weeks (A-F). While the primary melanoma cells remained on top of the gel only (A and B), a fraction of the Cut-met cells invaded the gel (C and D) and the LN-met cells invaded the matrix extensively (E and F). Cell lysates of the three lines were subjected to western blot analysis using an anti-ETRB Ab (G) and an anti-tubulin Ab (H). Untreated, control (vehicle treated), and BQ788 treated cells were subjected to MTS assay to quantify any reduction in cell number. The mean values were calculated and plotted (I) as the percentage of the vehicle treated value+/− SEM.
(§2) Human melanoma cell lines Me191-1/GG (Primary), Me 190/DA (Cut-met), Me 275/EP (LN-met) were obtained from the Ludwig Institute (Epalinges, Switzerland) and SK-MEL-28 was obtained from the American Tissue Culture Collection (ATCC). […] After removal of the inserts, MTS solution was added to the well to quantify the cells that migrated through the insert and were attached to the bottom of the well by measuring the OD at 492 nm (Promega). […]
(§3) To address the relationship between the level of progression of human melanoma and responsiveness to BQ788 treatment, 3 cell lines that had been grown in culture for a restricted number of passages were used. […] This effect was quantified using the MTS assay.

[2] = system: Me 275/EP (LN-met) melanoma cells; experiment: MTS assay of cell viability after BQ788; assay type: cell-based, human; conditions: incubation with BQ788 for seven days; LN-met line
Method: as §1, §2, §3

[3] = system: kidney cells; experiment: MTS assay, number of viable cells; assay type: cell-based; conditions: high concentrations of BQ788

CCCC[C@@H](NC(=O)[C@@H](Cc1cn(C(=O)OC)c2ccccc12)NC(=O)[C@H](CC(C)(C)C)NC(=O)N1[C@H](C)CCC[C@@H]1C)C(=O)O [BQ788, N-cis-2,6-dimethylpiperidinocarbonyl-L-γ-methylleucyl-D-1-methoxycarbonyltrptophanyl-D-norleucine]
reduction of viability [1]: 45% | reduction of viability [2]: 96% | number of kidney cells [3]: not reduced
